According to article PMC10648204, “Discovery of Novel Biphenyl Carboxylic Acid Derivatives as Potent URAT1 Inhibitors” (Molecules, 2023):

Columns and labels:
URAT1 = conditions: general statement in the introduction; cited from earlier work
human URAT1 = target: T1, human URAT1 (Homo sapiens, UniProt Q96S37); test: In vitro URAT1 inhibitory assay (14C-uric acid uptake in HEK293T cells expressing human URAT1); assay type: cell-based; conditions: HEK293-URAT1 cells, 14C-labeled uric acid substrate; for inhibition at 10 µM: HEK-293T, 10 μM compound, mean of three measurements
T1 construct: expressed in transfected cells; host or cells: HEK293T cells (ATCC CRL-11268)
T1 sequence (Q96S37 1-553): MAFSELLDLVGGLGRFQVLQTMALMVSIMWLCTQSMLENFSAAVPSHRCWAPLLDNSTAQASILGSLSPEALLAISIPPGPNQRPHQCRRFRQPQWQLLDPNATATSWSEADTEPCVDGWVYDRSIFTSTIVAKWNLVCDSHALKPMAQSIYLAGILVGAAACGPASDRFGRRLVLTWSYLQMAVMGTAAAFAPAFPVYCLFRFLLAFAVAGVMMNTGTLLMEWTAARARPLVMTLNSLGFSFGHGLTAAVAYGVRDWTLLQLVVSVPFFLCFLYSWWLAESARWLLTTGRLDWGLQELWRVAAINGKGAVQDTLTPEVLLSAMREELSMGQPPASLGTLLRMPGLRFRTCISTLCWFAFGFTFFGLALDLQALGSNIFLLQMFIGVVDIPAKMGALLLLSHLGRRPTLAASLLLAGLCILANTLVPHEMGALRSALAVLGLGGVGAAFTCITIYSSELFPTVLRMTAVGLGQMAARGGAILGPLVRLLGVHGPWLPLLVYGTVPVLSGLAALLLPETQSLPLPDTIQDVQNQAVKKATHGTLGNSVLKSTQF
Description: All the target compounds were evaluated for their URAT1 inhibitory activities in HEK293-URAT1 cells using ^14C-labeled uric acid as the substrate. […] The SAR exploration on series A compounds mainly focused on the hydrophobic component. […] For series B compounds, the ortho-substituted biphenyl carboxylic acid was initially kept, and various aromatic components were incorporated (B1–B25). […] Different substituents were introduced onto the 4-pyridyl (B15–B21).
In Vitro URAT1 Inhibitory Assay. A transient expression system of human URAT1 in HEK293T cells was constructed to measure ^14C-uric acid transport. […] The cell cryovials were removed from liquid nitrogen storage, and immediately placed on dry ice prior to thawing. […] The cell suspension was transferred into a 15 mL centrifuge tube, and 10 mL complete medium (DMEM +10% FBS +500 μg/mL G418 +1% P/S) was added. After centrifugation at 1000 rpm for 5 min, the supernatant was discarded, and cell precipitation was resuspended in 5 mL complete medium and transferred to a T75 culture flask. […] The uptake assay test could be carried out after cell culture adherent to the well in the 96-well plate. Then, the cells were washed with 200 µL/well of pre-warmed Cl^- free HBSS buffer, and all buffer was removed at the last washing. 50 µL/well of Cl^- free HBSS Buffer containing Uric acid [8-^14C] (2.5 μCi/mL) and samples were added to the cells, and incubated for 8 min. Then, the cells were washed three times with Cl^- free HBSS Buffer and all buffer was removed at the last washing. 50 µL/well of lysis buffer (100 mM NaOH) was added to the lysate cells and stirred at 900 rpm for 5 min. 150 µL/well MicroScint™-40 cocktail was added and agitated at 900 rpm for 5 min. Finally, the 96-plate was counted in a MicroBeta2 (PerkinElmer). The data were analyzed and IC50 values was calculated with GraphPad Prism 6 software.

Structure (SMILES)	IC50 (URAT1 inhibitor potency level, in words) (URAT1)	IC50 (human URAT1)	inhibition at 10 µM (human URAT1)	melting point
CCc1oc2ccccc2c1C(=O)c1cc(Br)c(O)c(Br)c1 [Benz, benzbromarone]	submicromolar level	–	–	–
O=C(NS(=O)(=O)c1ccc(Br)cc1)c1ccccc1-c1ccccc1-c1nc(-c2ccncc2Cl)no1 [Compound B27]	–	1300 nM	96%	188 to 190 °C
O=C(O)c1cccc(-c2ccccc2-c2nc(-c3ccncc3)no2)c1 [Compound B28]	–	–	29%	288 to 289 °C
O=C(O)c1ccc(-c2ccccc2-c2nc(-c3ccncc3)no2)cc1 [Compound B29]	–	–	18%	258 to 260 °C
O=C(O)c1ccccc1-c1ccccc1-c1nnc(-c2ccncc2)o1 [Compound B30]	–	–	33%	237 to 239 °C
O=C(O)CSc1nnc(Br)n1-c1ccc(C2CC2)c2ccccc12 [Lesinurad]	micromolar level	–	–	–
